Series [1] relates to plasma proteins.
For series [2] the following is noted: human, in vivo.
Series [3] in a line: clinical. The settings on record: human, in vivo.
Series [4] in a line: in vivo. The settings on record: female, Wistar, rat, 1 mg/kg; for AUC: mean ± SD, n = 6 rats.
The mark [5] stands for this setting: iv, ISF, 1 mg/kg bolus intravenous.
The mark [6] stands for this setting: iv, Serum, 1 mg/kg bolus intravenous.

The text below walks through data of US12433510B2, “Methods and systems for improved collection of interstitial fluid” (Georgia Tech Research Corporation, priority 2017, dated 2025).

The structures appear in SMILES notation. Read-outs that look alike come from different tables or passages of the source.

Take `CCN=c1cc2oc3cc(NCC)c(C)cc3c(-c3ccccc3C(=O)OCC)c-2cc1C.Cl` [R6G, rhodamine 6G]: in series [1], the “R6G concentration in protein-free serum samples” value came out at 0.05 ± 0.03 µM, the “R6G concentration in serum prior to filtration” value was determined as 9.6 ± 4.2 µM and the “binding to plasma proteins” value is on record as “strongly binds to plasma proteins”.
Broadly, the Cmax is the highest concentration seen after dosing. For orientation: AUC(0-t) means exposure summed from dosing to a finite time, without extrapolation to infinity. For orientation: clearance means the rate of elimination divided by the concentration. Broadly, the half-life is the time needed for the level to fall by half in the phase considered. In series [2], `Cn1c(=O)c2c(ncn2C)n(C)c1=O` [caffeine] registered a CL of 4.7 L/h and a t1/2 of 450 min. The molecule further showed a Cmax in series [2] (43 mg) of 1030 ng/mL. For the same molecule, in series [3] (43 mg, Cmax), the peak level (Cmax) was 1060 ng/mL. Further, the AUC(0-t) in series [3] (AUC(0-8 h)) was determined as 84 ng·h/mL. In series [3] (CL), this molecule gave a clearance of 68.3 mL/min. Moreover, the half-life in series [3] (t1/2) is 564 min.
By Tmax is commonly meant the time from dosing to the highest level. What is called Kp is tissue or fluid exposure divided by exposure in the circulation. For orientation: AUC means the area under the concentration-time curve, a measure of exposure. Higher therefore signals high exposure. In the case of `CN[C@H](CC(C)C)C(=O)N[C@H]1C(=O)N[C@@H](CC(N)=O)C(=O)N[C@H]2C(=O)N[C@H]3C(=O)N[C@H](C(=O)N[C@H](C(=O)O)c4cc(O)cc(O)c4-c4cc3ccc4O)[C@H](O)c3ccc(c(Cl)c3)Oc3cc2cc(c3O[C@@H]2O[C@H](CO)[C@@H](O)[C@H](O)[C@H]2O[C@H]2C[C@](C)(N)[C@H](O)[C@H](C)O2)Oc2ccc(cc2Cl)[C@H]1O` [vancomycin], the “Tmax Ratio (ISF:serum)” value (1 mg/kg bolus intravenous) is given as 2.7 ± 1.6. Also, for the setting “R2=0.40”, the “slope of linear correlation of paired ISF and serum drug levels” value was determined as 0.75±0.06. Also, the Tmax in series [4] (delay in time to peak concentration (Tmax) in ISF compared to serum) was about 17 min; in series [4] (iv, Tmax, ISF, 1 mg/kg bolus intravenous), 26.6 min; in series [4] (iv, Tmax, Serum, 1 mg/kg bolus intravenous), 10 min. The Kp came to 1.3 ± 0.2 in series [4] (iv, AUC Ratio (ISF:serum), 1 mg/kg bolus intravenous) and 0.9 ± 0.2 in series [4] (iv, Cmax Ratio (ISF:serum), 1 mg/kg bolus intravenous). The AUC in series [4] (setting [5]) was 2300 ng·h/mL; in series [4] (setting [6]), 1770 ng·h/mL. For the same molecule, the Cmax in series [4] (setting [5]) worked out at 2500 ± 1000 ng/mL; in series [4] (setting [6]), 2600 ± 600 ng/mL.
